Test results taken from patent publication US20220127232A1, “HISTONE ACETYLTRANSFERASE MODULATORS AND COMPOSITIONS AND USES THEREOF” (The Trustees of Columbia University in the City of New York, priority 2019, published 2022).
Structures can show the parent of a compound that is named as a salt. Where two headings read alike, the source gives them in different places.

Legend:
p300 = p300 (Homo sapiens, UniProt Q09472); assay: Histone Acetyltransferase (HAT) in vitro acetylation assay, western blot of H3K27ac / H3K18ac; format: biochemical; details: for H3-Lys 27 EC50 / H3-Lys 18 EC50 / EC50: EC50 for activators; for H3-Lys 27 IC50 / H3-Lys 18 IC50: IC50 for inhibitors
p300, sequence (Q09472 whole entry, species assumed): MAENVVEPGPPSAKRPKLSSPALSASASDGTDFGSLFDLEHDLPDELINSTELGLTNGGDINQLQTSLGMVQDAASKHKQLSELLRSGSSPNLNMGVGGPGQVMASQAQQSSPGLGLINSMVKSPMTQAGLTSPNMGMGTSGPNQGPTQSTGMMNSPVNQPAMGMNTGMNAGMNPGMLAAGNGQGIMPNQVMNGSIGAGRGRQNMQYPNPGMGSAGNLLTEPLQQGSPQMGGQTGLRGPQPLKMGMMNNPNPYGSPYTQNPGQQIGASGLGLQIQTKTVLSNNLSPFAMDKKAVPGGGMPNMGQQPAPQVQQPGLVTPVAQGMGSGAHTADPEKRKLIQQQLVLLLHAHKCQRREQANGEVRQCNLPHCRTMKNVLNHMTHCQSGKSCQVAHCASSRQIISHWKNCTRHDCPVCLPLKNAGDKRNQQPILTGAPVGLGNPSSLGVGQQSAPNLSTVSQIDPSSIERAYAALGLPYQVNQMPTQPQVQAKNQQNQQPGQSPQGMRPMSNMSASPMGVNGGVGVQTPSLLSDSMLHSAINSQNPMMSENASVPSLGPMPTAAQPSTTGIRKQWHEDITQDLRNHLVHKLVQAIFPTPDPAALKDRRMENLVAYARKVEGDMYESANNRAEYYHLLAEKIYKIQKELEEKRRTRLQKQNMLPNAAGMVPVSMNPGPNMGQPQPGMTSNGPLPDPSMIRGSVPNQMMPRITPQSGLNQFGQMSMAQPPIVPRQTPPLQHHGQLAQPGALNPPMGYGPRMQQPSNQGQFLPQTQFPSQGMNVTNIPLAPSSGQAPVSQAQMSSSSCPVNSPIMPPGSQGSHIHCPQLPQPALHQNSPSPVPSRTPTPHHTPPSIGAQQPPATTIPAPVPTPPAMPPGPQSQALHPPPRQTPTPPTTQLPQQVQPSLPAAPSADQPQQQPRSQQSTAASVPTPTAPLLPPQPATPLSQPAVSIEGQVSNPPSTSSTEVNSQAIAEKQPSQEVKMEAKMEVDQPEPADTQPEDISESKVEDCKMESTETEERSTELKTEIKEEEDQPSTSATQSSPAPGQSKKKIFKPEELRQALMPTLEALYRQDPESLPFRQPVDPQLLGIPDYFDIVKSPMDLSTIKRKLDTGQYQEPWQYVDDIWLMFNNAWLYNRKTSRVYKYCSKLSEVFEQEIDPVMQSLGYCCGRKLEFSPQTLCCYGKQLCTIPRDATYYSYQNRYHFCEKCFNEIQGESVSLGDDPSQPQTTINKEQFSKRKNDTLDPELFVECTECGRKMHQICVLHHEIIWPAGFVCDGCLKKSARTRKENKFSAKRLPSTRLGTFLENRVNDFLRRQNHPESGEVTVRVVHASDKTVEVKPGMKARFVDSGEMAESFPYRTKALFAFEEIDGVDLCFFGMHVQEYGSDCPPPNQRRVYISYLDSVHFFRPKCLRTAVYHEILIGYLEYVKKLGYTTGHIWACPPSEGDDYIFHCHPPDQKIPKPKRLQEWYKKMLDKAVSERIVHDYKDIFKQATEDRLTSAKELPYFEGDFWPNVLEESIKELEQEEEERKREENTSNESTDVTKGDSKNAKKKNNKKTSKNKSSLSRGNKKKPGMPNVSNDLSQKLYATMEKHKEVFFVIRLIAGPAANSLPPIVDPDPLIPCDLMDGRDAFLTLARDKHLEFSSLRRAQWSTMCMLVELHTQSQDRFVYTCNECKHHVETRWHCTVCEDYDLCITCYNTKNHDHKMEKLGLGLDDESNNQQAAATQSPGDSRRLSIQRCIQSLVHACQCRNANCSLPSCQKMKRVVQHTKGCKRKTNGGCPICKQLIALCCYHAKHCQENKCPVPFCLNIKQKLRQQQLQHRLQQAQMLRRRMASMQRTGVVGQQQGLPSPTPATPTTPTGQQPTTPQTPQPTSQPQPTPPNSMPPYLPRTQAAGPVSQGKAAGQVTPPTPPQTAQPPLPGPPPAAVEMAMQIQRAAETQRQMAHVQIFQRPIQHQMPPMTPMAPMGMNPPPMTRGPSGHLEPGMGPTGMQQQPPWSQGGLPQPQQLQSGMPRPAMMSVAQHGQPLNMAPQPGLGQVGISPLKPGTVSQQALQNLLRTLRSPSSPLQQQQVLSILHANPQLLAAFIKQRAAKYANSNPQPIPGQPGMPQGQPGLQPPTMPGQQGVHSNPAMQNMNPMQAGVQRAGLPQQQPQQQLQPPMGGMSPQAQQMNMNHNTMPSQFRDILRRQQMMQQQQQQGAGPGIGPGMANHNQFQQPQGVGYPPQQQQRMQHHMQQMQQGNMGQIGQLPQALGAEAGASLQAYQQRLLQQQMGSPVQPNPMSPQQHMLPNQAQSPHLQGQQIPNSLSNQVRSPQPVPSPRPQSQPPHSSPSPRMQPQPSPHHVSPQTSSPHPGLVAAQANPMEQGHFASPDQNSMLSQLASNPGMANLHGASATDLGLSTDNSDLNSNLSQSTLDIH
Description: The aim of the in vitro acetylation assay is to measure the enzymatic activity of the various compounds towards p300.
First, the drug is prepared:
Second, dilute p300 in AM1 buffer to a concentration of 40 ng/μL (final concentration in the reaction 20 ng/μL). This is accomplished by diluting 1 μL of p300 (at 0.4 μg/μL) into […] of AM1 buffer.
Third, prepare the Master Mix. Prepare the Master Mix in low protein binding tubes (ThermoFisher Cat. No. 90410), 20 μL system.
Incubate reactions at 30° C. for 30 minutes.
Incubate reactions at 30° C. for 1 hour.
Fourth, perform the western blot assay. • Add 6.7 μL of Laemmli Sample Buffer 4× (Bio-Rad Laboratories Cat. No. 161-0737) for each reaction and boil samples at 95° C. for 5 min. • Charge 10 μL for each sample in 2 Tris Glycine 4-15% gels (Bio-Rad Laboratories Cat. No. 456-1086). Running Buffer: Tris-Glycine 1× (pour in the cell up to the writing “2 gels”). • Run at 90 V for 1 hour (until the gel front reaches the green line of cell). • Semi-dry transfer with Trans-Blot® Turbo™ Blotting System from Bio-Rad Laboratories (Trans-Blot® Turbo™ RTA midi PVDF transfer kit Cat. No1704275). • Activate PVDF membrane in methanol for 5 minutes and then wet in Trans-Blot® Turbo™ transfer buffer. • Wet stacks in transfer buffer. • Transfer at 23 V 1.3 A for 7 minutes. • Blocking buffer: 5% Non-Fat milk in TBST (tween 0.1%) 1 hour at room temperature. • Cut the membranes to get Ac-His 3 at 17 kDa and p300 at 300 kDa. • Incubate with primary antibodies overnight at 4° C. • The day after, make 3 washes in TBST (Tween 0.1%) of 10 minutes. • Incubate with secondary antibody at room temperature for 1 hour. • Make 3 washes in TBST (Tween 0.1%) of 5 minutes. • Incubate membranes with ECL (SuperSignal West Dura Extended Duration Substrate from ThermoFisher) for 5 minutes at room temperature. • Acquire the image with ChemiDoc Odyssey Fc 2 minutes.
To detect total H3 (loading control), strip the membranes with Restore™ Western Blot Stripping Buffer according to the manufacturer protocol.
Various compounds were tested for enzymatic activity with respect to Lys 18 and Lys 27. EC50 is indicated for Activators and IC50 for inhibitors respectively.
FIGS. 1A to 25B are graphs showing the lysine residue acetylation as a function of concentration for the compounds set forth in Table 3. The shaded area corresponds to the average values of lysine residue acetylation (continuous line) and their standard error range measured in the absence of compound and DMSO. The number of replicates is represented by “n”.

[1] = Stability in human liver microsomes; format: in vitro ADME; details: for microsomal CLint at 1 μM / half-life at 1 μM: both sexes, human, liver microsomes, pH 7.4, human liver microsomes
Description: Some compounds were tested for stability in human liver microsomes as shown below in Table 2.
Mixed-gender human liver microsomes (Lot #1010420) were purchased from XenoTech. The reaction mixture, minus NADPH, was prepared as described below. The test article was added into the reaction mixture at a final concentration of 1 μM. The control compound, testosterone, was run simultaneously with the test article in a separate reaction. An aliquot of the reaction mixture (without cofactor) was equilibrated in a shaking water bath at 37° C. for 3 minutes. The reaction was initiated by the addition of the cofactor, and the mixture was incubated in a shaking water bath at 37° C. Aliquots (100 μL) were withdrawn at 0, 10, 20, 30, and 60 minutes. Test article and testosterone samples were immediately combined with 400 μL of ice-cold 50/50 acetonitrile (ACN)/H2O containing 0.1% formic acid and internal standard to terminate the reaction. The samples were then mixed and centrifuged to precipitate proteins. All samples were assayed by LC-MS/MS using electrospray ionization. Analytical conditions are outlined in Appendix 1. The peak area response ratio (PARR) to internal standard was compared to the PARR at time 0 to determine the percent remaining at each time point. Half-lives and clearance were calculated using GraphPad software, fitting to a single-phase exponential decay equation.
Liver Microsomes 0.5 mg/mL NADPH (cofactor) 1 mM
Potassium Phosphate, pH 7.4 100 mM
Intrinsic clearance (CLint) was calculated based on CLint=k/P, where k is the elimination constant and P is the protein concentration in the incubation.

[2] = compound in DMSO, read-out: H3-Lys 18 EC50
[3] = compound in DMSO, read-out: H3-Lys 27 EC50

Compound | H3-Lys 27 EC50 (p300; compound in DMSO) | H3-Lys 27 IC50 (p300; compound in DMSO) | H3-Lys 18 EC50 (p300; compound in DMSO) | H3-Lys 18 IC50 (p300; compound in DMSO) | also measured
CC(C)Oc1cccc(OCCN(C)C)c1C(=O)Nc1ccc(Cl)c(C(F)(F)F)c1 [RA010143 HCl] | NO ACTIVITY | NO ACTIVITY |  |  | 
CCOc1cccc(OCCO)c1C(=O)Nc1ccc(Cl)c(C(F)(F)F)c1 [RA010146] | NO ACTIVITY | NO ACTIVITY | NO ACTIVITY | NO ACTIVITY | 
CCOc1cccc(OCCOC)c1C(=O)Nc1ccc(Cl)c(C(F)(F)F)c1 [RA010155] | NO ACTIVITY | NO ACTIVITY |  |  | EC50 (p300; [2]): 129 nM
CCOc1cccc(O)c1C(=O)Nc1cccc(C(F)(F)F)c1 [RA010160] |  |  |  |  | EC50 (p300; [2]): 146 nM; EC50 (p300; [3]): 533 nM
CN(C)CCOc1cccc(F)c1C(=O)Nc1ccc(Cl)c(C(F)(F)F)c1 [RA010162] | NO ACTIVITY | NO ACTIVITY | NO ACTIVITY | NO ACTIVITY | 
CCOc1cccc(N(C)CCN(C)C)c1C(=O)Nc1ccc(Cl)c(C(F)(F)F)c1 [RA010163] | NO ACTIVITY | NO ACTIVITY | NO ACTIVITY | NO ACTIVITY | 
CCOc1cccc(OCCN(C)C)c1C(=O)Nc1cccc(C(F)(F)F)c1 [RA010168] | NO ACTIVITY | NO ACTIVITY |  |  | 
CCOc1cccc(OCC)c1C(=O)Nc1ccc(Cl)c(C(F)(F)F)c1 [RA010171] |  |  |  |  | EC50 (p300; [2]): 141 nM
COc1cccc(OCCN(C)C)c1C(=O)Nc1ccc(Cl)c(C(F)(F)F)c1 [RA010900 HCl] | NO ACTIVITY | NO ACTIVITY | NO ACTIVITY | NO ACTIVITY | EC50 (p300; compound in H2O, read-out: H3-Lys 18 EC50): 117 nM; EC50 (p300; compound in H2O, read-out: H3-Lys 27 EC50): 44 nM
CCOc1ccnc(OCCN(C)C)c1C(=O)Nc1ccc(Cl)c(C(F)(F)F)c1 [RA013005] |  |  |  |  | EC50 (p300; [2]): 76.5 nM; EC50 (p300; [3]): 594 nM; microsomal CLint at 1 μM ([1]; calculated value printed in parentheses behind the bound, read-out: CLint, value in parentheses): 188 µL/min/mg; half-life at 1 μM ([1]; fitted value printed in parentheses behind the bound, read-out: Half-life, value in parentheses): 7.36 min; microsomal CLint at 1 μM ([1]; read-out: CLint): > 139 µL/min/mg; half-life at 1 μM ([1]; read-out: Half-life): < 10 min; % Remaining of Initial (n = 1) 0 min ([1]; human liver microsomes, test article 1 μM, 0 min): 100%; % Remaining of Initial (n = 1) 10 min ([1]; human liver microsomes, test article 1 μM, 10 min): 40.5%; % Remaining of Initial (n = 1) 20 min ([1]; human liver microsomes, test article 1 μM, 20 min): 14.1%; % Remaining of Initial (n = 1) 30 min ([1]; human liver microsomes, test article 1 μM, 30 min): 4.97%; % Remaining of Initial (n = 1) 60 min ([1]; human liver microsomes, test article 1 μM, 60 min): <1.00%
CCOc1cccc(OCCN(C)C)c1-c1nc2cc(Cl)c(C(F)(F)F)cc2[nH]1 [RA013012] | NO ACTIVITY | NO ACTIVITY | NO ACTIVITY | NO ACTIVITY | 
CCOc1ccccc1C(=O)N(CCN(C)C)c1ccc(Cl)c(C(F)(F)F)c1 [RA013886] | NO ACTIVITY | NO ACTIVITY | NO ACTIVITY | NO ACTIVITY | 
CCOc1cccc(OCCNC)c1C(=O)Nc1ccc(Cl)c(C(F)(F)F)c1 [RA013894] | NO ACTIVITY | NO ACTIVITY | NO ACTIVITY | NO ACTIVITY | 
CN(C)CCOc1cccc(O)c1C(=O)Nc1ccc(Cl)c(C(F)(F)F)c1 [RA013905] | NO ACTIVITY | NO ACTIVITY | NO ACTIVITY | NO ACTIVITY | 
CCOc1cccc(OCCN(C)C)c1C(=O)Nc1ccc(Cl)cn1 [RA013917] |  |  | NO ACTIVITY |  | EC50 (p300; [3]): 15.9 nM
CCOc1cccc(OCCN(C)C)c1NC(=O)c1ccc(Cl)c(C(F)(F)F)c1 [RA013919] | NO ACTIVITY | NO ACTIVITY |  |  | 
CCOc1cccc(OCCN(C)C)c1C(=O)Nc1cccc(C(F)(F)F)c1 [RA013928] |  |  | NO ACTIVITY | NO ACTIVITY | 
CCCOc1cccc(O)c1C(=O)Nc1ccc(Cl)c(C(F)(F)F)c1 [RA013931] | NO ACTIVITY | NO ACTIVITY | NO ACTIVITY | NO ACTIVITY | 
CCCOc1cccc(OCCN(C)C)c1C(=O)Nc1ccc(Cl)c(C(F)(F)F)c1 [RA013938] | NO ACTIVITY | NO ACTIVITY | NO ACTIVITY | NO ACTIVITY | 
